For 17 compounds, IC50 results are on record in patent US20160129011A1, “BICYCLO 2,3-BENZODIAZEPINES AND SPIROCYCLICALLY SUBSTITUTED 2,3-BENZODIAZEPINES” (BAYER PHARMA AKTIENGESELLSCHAFT, priority 2013, published 2016).

A value given as a limit tells only on which side of the number the result lay.

The target of the experiment is T1, BRD4 (BD1) (Homo sapiens, UniProt O60885).
T1 construct: longer constructs also being possible, preferably amino acids 44-168; made in house; host or cells: E. coli
Put plainly: Binding assay BRD4/acetylated peptide H4 (TR-FRET protein-protein interaction assay). Particulars: BRD4 (BD1) / acetylated histone H4 peptide. An excerpt: To assess the BRD4 binding strength of the substances described in this application, the ability thereof to inhibit the interaction between BRD4 (BD1) and acetylated histone H4 in a dose-dependent manner was quantified.
For this purpose, a time-resolved fluorescence resonance energy transfer (TR-FRET) assay was used, which measures the binding between N-terminally His6-tagged BRD4 (BD1) (amino acids 67-152, longer constructs also being possible, preferably amino acids 44-168) and a synthetic acetylated histone H4 (Ac—H4) peptide with sequence GRGK(Ac)GGK(Ac)GLGK(Ac)GGAK(Ac)RHGSGSK-biotin. The recombinant BRD4 protein produced in-house according to Filippakopoulos et al., Nature, 2010, 468:1119-1123 was expressed in E. coli and purified by means of (Ni-NTA) affinity and (Sephadex G-75) size exclusion chromatography. The Ac—H4 peptide can be purchased, for example, from Biosyntan (Berlin, Germany).
In the assay, typically 11 different concentrations of each substance (0.1 nM, 0.33 nM, 1.1 nM, 3.8 nM, 13 nM, 44 nM, 0.15 μM, 0.51 μM, 1.7 μM, 5.9 μM and 20 μM) were analysed as duplicates on the same microtitre plate. For this purpose, 100-fold concentrated solutions in DMSO were prepared by serial dilutions (1:3.4) of a 2 mM stock solution into a clear, 384-well microtitre plate (Greiner Bio-One, Frickenhausen, Germany). From this, 50 nl were transferred into a black test plate (Greiner Bio-One, Frickenhausen, Germany). The test was started by the addition of 2 μl of a 2.5-fold concentrated BRD4 solution (final concentration typically 10 nM in the 5 μl of reaction volume) in aqueous assay buffer [50 mM HEPES pH 7.5, 50 mM sodium chloride (NaCl), 0.25 mM CHAPS and 0.05% serum albumin (BSA)] to the substances in the test plate. This was followed by a 10-minute incubation step at 22° C. for the pre-equilibration of putative complexes between BRD4 and the substances.
The mixture was then incubated in the dark at 22° C. for one hour and then at 4° C. for at least 3 hours and for no longer than overnight. The formation of BRD4/Ac—H4 complexes was determined by the measurement of the resonance energy transfer from the streptavidin-Eu cryptate to the anti-6His-XL665 antibody present in the reaction. For this purpose, the fluorescence emission was measured at 620 nm and 665 nm after excitation at 330-350 nm in a TR-FRET measuring instrument, for example a Rubystar or Pherastar (both from BMG Lab Technologies, Offenburg, Germany) or a Viewlux (Perkin-Elmer). The ratio of the emissions at 665 nm and at […] was taken as an indicator of the amount of BRD4/Ac—H4 complexes formed.
The data (ratios) obtained were normalized, with 0% inhibition corresponding to the mean from the measurements for a set of controls (typically 32 data points) in which all the reagents were present. In these, in place of test substances, 50 nl of DMSO (100%) were used. Inhibition of 100% corresponded to the mean from the measurements for a set of controls (typically 32 data points) in which all the reagents except BRD4 were present. The IC50 was determined by regression analysis based on a 4-parameter equation (minimum, maximum, IC50, Hill; Y=max+(min−max)/(1+(X/IC50)^Hill)).
The compound `CNC(=O)N1N=C(c2ccc(N3CC4(CCS4(=O)=O)C3)cc2)c2cc(-n3nc(C)cc3C)ccc2CC1C` (racemic) [Example 17, (±)-8-(3,5-dimethyl-1H-pyrazol-1-yl)-1-[4-(1,1-dioxido-1-thia-6-azaspiro[3.3]hept-6-yl)phenyl]-N,4-dimethyl-4,5-dihydro-3H-2,3-benzodiazepine-3-carboxamide] came in with an IC50 of 40 nM. That is a double-digit nanomolar value.

`CNC(=O)N1N=C(c2ccc(N3CCC4(CC3)CNC(=O)C4)cc2)c2cc(OC)c(OC)cc2CC1C` (racemic) [Example 28, (±)-7,8-Dimethoxy-N,4-dimethyl-1-[4-(3-oxo-2,8-diazaspiro[4.5]dec-8-yl)phenyl]-4,5-dihydro-3H-2,3-benzodiazepine-3-carboxamide] displayed an IC50 of 100 nM.

On to `CNC(=O)N1N=C(c2ccc(N3CCC4(CCN(C)C4)CC3)cc2)c2cc(OC)c(OC)cc2CC1C` (racemic) [Example 31, (±)-7,8-dimethoxy-N,4-dimethyl-1-[4-(2-methyl-2,8-diazaspiro[4.5]dec-8-yl)phenyl]-4,5-dihydro-3H-2,3-benzodiazepine-3-carboxamide], for which the IC50 worked out at 100 nM.

Turning to `CNC(=O)N1N=C(c2ccc(N3CCC4(CC3)COC(=O)N4)cc2)c2cc(OC)c(OC)cc2CC1C` (racemic) [Example 32], the IC50 was found to be 110 nM.

`CNC(=O)N1N=C(c2ccc(N3CC4(C3)CS(=O)(=O)C4)cc2)c2cc(OC)c(OC)cc2CC1C` (racemic) [Example 34, (±)-1-[4-(2,2-dioxido-2-thia-6-azaspiro[3.3]hept-6-yl)phenyl]-7,8-dimethoxy-N,4-dimethyl-4,5-dihydro-3H-2,3-benzodiazepine-3-carboxamide]: the IC50 came out at 70 nM. This IC50 lies about 1.6-fold lower than the previous one.

`CNC(=O)N1N=C(c2ccc(N3C4CCC3CC(=O)NC4)cc2)c2cc(OC)c(OC)cc2CC1C` (racemic) [Example 39, (±)-7,8-Dimethoxy-N,4-dimethyl-1-[4-(4-oxo-3,9-diazabicyclo[4.2.1]non-9-yl)phenyl]-4,5-dihydro-3H-2,3-benzodiazepine-3-carboxamide] had an IC50 of 120 nM.

For `CNC(=O)N1N=C(c2ccc(N3C(=O)[C@@H]4CC[C@H]3C4)cc2)c2cc(OC)c(OC)cc2C[C@@H]1C` (relative stereo) [Example 2, {1S-[1R*,2(S*),4S*]}-7,8-dimethoxy-N,4-dimethyl-1-[4-(-3-oxo-2-azabicyclo[2.2.1]hept-2-yl)phenyl]-4,5-dihydro-3H-2,3-benzodiazepine-3-carboxamide], the IC50 amounted to 20 nM.

`CNC(=O)N1N=C(c2ccc(N3C[C@@H]4C[C@H]3CN4C)cc2)c2cc(OC)c(OC)cc2C[C@@H]1C` (relative stereo) [Example 40.2, [1S-[1R*,2(R*),4R*]]-7,8-Dimethoxy-N,4-dimethyl-1-[4-(5-methyl-2,5-diazabicyclo[2.2.1]hept-2-yl)phenyl]-4,5-dihydro-3H-2,3-benzodiazepine-3-carboxamide] came in with an IC50 of 520 nM.

In the case of `CNC(=O)N1N=C(c2ccc(F)c(N3C[C@@H]4C[C@H]3CN4C)c2)c2cc(OC)c(OC)cc2C[C@H]1C` (relative stereo) [Example 41.1, [1S-(1R*,2(S*),4R*)]-1-[4-fluoro-3-(5-methyl-2,5-diazabicyclo[2.2.1]hept-2-yl)phenyl]-7,8-dimethoxy-4,5-dihydro-N,4-dimethyl-3H-2,3-benzodiazepine-3-carboxamide], the half-maximal inhibitory concentration (IC50) was determined as 16500 nM.

`CNC(=O)N1N=C(c2ccc(F)c(N3C[C@@H]4C[C@H]3CN4C)c2)c2cc(OC)c(OC)cc2C[C@@H]1C` (relative stereo) [Example 41.2, [1S-(1R*,2(R*),4R*)]-1-[4-fluoro-3-(5-methyl-2,5-diazabicyclo[2.2.1]hept 2-yl)phenyl]-7,8-dimethoxy-4,5-dihydro-N,4-dimethyl-3H-2,3-benzodiazepine-3-carboxamide] came in with an IC50 of 380 nM.

In turn, `CNC(=O)N1N=C(c2ccc(N3CC4(CCS4(=O)=O)C3)cc2)c2cc(OC)c(OC)cc2C[C@H]1C` [Example 3.2, (4R)-1-[4-(1,1-Dioxido-1-thia-6-azaspiro[3.3]hept-6-yl)phenyl]-7,8-dimethoxy-N,4-dimethyl-4,5-dihydro-3H-2,3-benzodiazepine-3-carboxamide] returned an IC50 of 2580 nM.

As to `CNC(=O)N1N=C(c2ccc(N3CC4(COC4)C3)cc2)c2cc(OC)c(OC)cc2C[C@H]1C` [Example 5.2, (4R)-7,8-dimethoxy-N,4-dimethyl-1-[4-(2-oxa-6-azaspiro[3.3]hept-6-yl)phenyl]-4,5-dihydro-3H-2,3-benzodiazepine-3-carboxamide], the IC50 came out at 1360 nM.

Compound `CNC(=O)N1N=C(c2ccc(N3CC4(CN(C(=O)OC(C)(C)C)C4)C3)cc2)c2cc(OC)c(OC)cc2C[C@H]1C` [Example 8.2, tert-butyl 6-{4-[(4R)-7,8-dimethoxy-4-methyl-3-(melhylcarbamoyl)-4,5-dihydro-3H-2,3-benzodiazepine-1-yl]phenyl}-2,6-diazaspiro[3.3]heptane-2-carboxylate] gave an IC50 of 2050 nM.

In the case of `CNC(=O)N1N=C(c2ccc(N3CCC4(CCCC4)CC3)cc2)c2cc(OC)c(OC)cc2C[C@@H]1C` [Example 9.1, (4S)-1-[4-(8-azaspiro[4.5]dec-8-yl)phenyl]-7,8-dimethoxy-N,4-dimethyl-4,5-dihydro-3H-2,3-benzodiazepine-3-carboxamide], the IC50 is 200 nM.

The compound `CNC(=O)N1N=C(c2ccc(N3CCC4(CCCC4)CC3)cc2)c2cc(OC)c(OC)cc2C[C@H]1C` [Example 9.2, (4R)-1-[4-(8-azaspiro[4.5]dec-8-yl)phenyl]-7,8-dimethoxy-N,4-dimethyl-4,5-dihydro-3H-2,3-benzodiazepine-3-carboxamide] displayed an IC50 above 20000 nM.

`CNC(=O)N1N=C(c2ccc(N3CC4(CCS4(=O)=O)C3)cc2)c2cc(OC(F)(F)F)ccc2C[C@H]1C` [Example 18.1, (4R)-1-[4-(1,1-dioxido-1-thia-6-azaspiro[3.3]hept-6-yl)phenyl]-N,4-dimethyl-8-(trifluoromethoxy)-4,5-dihydro-3H-2,3-benzodiazepine-3-carboxamide] registered an IC50 of 11500 nM.

`CNC(=O)N1N=C(c2ccc(N3C[C@@H]4C[C@H]3CO4)cc2)c2cc(OC)c(OC)cc2C[C@@H]1C` [Example 35, (4S)-7,8-dimethoxy-N,4-dimethyl-1-{4-[(1S,4S)-2-oxa-5-azabicyclo[2.2.1]hept-5-yl]phenyl}-4,5-dihydro-3H-2,3-benzodiazepine-3-carboxamide] gave an IC50 of 4110 nM.
